Experimental data reported in publication PMC7422722, “The complete functional characterisation of the terpene synthase family in tomato” (The New Phytologist, 2020).

Legend:
Assay type in all cases: biochemical
[1] = target: T1, GGPPS2 (Solanum lycopersicum, UniProt Q1A7S9); experiment: in vitro prenyltransferase assay, products hydrolysed, GC-MS; conditions: co-substrate IPP; without SSU
T1 construct: gene GGPS2

[2] = target: T2, GGPPS1 (Solanum lycopersicum, UniProt Q1A7T0); experiment: as above; conditions: co-substrate IPP; without SSU
T2 construct: gene GGPS1

[3] = target: T3, TPS47 (Solanum lycopersicum, UniProt K4BEJ5); experiment: in vitro assay, headspace SPME GC-MS; conditions: product isoprene; 42 °C headspace collection
T3 construct: gene LOC101258440; recombinant, E. coli (codon-optimised gene made), His-tagged, purified; full length 562 residues; gene on chromosome 3
T3 sequence (K4BEJ5 1-562): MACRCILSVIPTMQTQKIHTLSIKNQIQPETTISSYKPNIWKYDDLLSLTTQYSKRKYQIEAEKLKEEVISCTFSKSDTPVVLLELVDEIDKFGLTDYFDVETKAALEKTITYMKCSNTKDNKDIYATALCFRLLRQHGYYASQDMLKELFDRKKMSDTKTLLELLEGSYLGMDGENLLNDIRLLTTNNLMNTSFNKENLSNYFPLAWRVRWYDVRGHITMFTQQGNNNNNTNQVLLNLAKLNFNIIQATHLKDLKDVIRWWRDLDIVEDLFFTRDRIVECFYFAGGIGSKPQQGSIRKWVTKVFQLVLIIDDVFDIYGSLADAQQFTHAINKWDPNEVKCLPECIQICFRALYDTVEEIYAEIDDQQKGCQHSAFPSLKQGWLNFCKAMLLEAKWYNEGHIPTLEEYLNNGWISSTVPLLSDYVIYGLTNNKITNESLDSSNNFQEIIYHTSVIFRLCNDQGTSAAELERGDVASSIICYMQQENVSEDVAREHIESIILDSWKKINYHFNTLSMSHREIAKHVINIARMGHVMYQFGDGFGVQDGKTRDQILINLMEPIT

[4] = target: T4, TPS25 (Solanum lycopersicum, UniProt G5CV49); experiment: in vitro assay, GC-MS of products; conditions: product mostly beta-ocimene
T4 construct: recombinant, E. coli pET32b or pET28a, His-tagged, purified
T4 sequence (G5CV49 1-576): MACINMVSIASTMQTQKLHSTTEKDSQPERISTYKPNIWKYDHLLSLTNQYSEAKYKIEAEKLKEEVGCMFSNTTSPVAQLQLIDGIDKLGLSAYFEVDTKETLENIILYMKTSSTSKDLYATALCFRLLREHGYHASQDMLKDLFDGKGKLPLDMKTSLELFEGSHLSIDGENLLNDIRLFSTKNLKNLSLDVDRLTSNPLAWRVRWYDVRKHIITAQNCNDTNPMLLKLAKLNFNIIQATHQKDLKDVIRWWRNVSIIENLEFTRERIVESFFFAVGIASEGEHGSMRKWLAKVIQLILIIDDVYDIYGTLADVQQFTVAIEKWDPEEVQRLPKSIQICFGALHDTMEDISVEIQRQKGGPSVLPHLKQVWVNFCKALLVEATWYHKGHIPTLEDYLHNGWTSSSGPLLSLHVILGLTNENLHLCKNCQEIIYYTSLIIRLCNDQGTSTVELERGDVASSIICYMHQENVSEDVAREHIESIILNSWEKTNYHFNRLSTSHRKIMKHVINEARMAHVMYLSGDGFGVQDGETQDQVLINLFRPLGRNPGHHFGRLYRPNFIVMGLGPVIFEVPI

[5] = target: T5, TPS52 (Solanum lycopersicum, UniProt A0A6H0JLZ2); experiment: in vitro assay, GC-MS of products
T5 construct: recombinant, E. coli (codon-optimised gene made), His-tagged, purified; full length 551 residues; gene on chromosome 7
T5 sequence (A0A6H0JLZ2 1-551): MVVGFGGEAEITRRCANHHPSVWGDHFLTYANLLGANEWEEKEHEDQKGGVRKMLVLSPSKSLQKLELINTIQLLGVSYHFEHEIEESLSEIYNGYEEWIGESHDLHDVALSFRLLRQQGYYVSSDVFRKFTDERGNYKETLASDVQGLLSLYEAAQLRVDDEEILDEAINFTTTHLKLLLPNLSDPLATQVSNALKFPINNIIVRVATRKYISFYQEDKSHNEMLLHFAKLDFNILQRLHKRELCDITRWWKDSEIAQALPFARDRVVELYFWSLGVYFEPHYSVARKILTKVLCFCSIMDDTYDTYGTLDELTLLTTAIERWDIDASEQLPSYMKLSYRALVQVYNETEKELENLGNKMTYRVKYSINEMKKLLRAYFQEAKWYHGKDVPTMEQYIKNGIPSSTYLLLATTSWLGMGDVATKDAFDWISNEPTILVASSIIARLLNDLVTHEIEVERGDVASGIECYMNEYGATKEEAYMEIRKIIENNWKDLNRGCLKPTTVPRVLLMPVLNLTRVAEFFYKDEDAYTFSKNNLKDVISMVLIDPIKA

[6] = target: T6, TPS33 (Solanum lycopersicum, UniProt G5CV44); experiment: in vitro assay, GC-MS of products; conditions: several sesquiterpene products
T6 construct: recombinant, E. coli pET32b or pET28a, His-tagged, purified
T6 sequence (G5CV44 1-552): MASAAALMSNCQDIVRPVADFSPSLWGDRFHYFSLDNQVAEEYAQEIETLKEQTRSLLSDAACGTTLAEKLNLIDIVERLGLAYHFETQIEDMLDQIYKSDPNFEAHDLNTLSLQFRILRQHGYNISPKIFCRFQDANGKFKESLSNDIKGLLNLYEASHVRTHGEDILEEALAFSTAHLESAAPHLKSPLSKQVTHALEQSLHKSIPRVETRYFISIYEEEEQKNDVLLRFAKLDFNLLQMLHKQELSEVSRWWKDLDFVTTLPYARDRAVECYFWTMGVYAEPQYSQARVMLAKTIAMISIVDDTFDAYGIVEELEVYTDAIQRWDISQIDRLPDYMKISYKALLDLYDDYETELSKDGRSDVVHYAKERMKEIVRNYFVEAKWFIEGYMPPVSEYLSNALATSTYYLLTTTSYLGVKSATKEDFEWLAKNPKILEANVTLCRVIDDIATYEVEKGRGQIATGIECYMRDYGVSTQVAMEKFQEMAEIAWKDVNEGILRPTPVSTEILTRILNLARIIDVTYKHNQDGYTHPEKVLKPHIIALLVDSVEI

[7] = target: T7, TPS28 (Solanum lycopersicum, UniProt G5CV47); experiment: in vitro assay, GC-MS of products; conditions: product unidentified sesquiterpene
T7 construct: recombinant, E. coli pET32b or pET28a, His-tagged, purified
T7 sequence (G5CV47 1-554): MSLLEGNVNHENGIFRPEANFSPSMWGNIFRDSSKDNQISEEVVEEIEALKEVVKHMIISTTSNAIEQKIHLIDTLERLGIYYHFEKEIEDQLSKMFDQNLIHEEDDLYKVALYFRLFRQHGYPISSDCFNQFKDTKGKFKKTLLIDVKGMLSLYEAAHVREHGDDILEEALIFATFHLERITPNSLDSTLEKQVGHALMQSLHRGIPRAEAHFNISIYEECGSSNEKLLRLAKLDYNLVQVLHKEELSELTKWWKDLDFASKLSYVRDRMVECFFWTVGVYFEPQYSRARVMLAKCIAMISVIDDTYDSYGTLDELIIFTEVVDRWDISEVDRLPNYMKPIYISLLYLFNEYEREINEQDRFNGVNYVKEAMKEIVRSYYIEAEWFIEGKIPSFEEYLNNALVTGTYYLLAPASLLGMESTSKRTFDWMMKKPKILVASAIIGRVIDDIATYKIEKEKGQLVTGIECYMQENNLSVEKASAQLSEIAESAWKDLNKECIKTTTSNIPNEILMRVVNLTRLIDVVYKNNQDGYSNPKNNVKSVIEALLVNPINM

[8] = target: T8, TPS36 (Solanum lycopersicum, UniProt G5CV42); experiment: in vitro assay, GC-MS of products; conditions: product mostly cis-muurola-3,5-diene
T8 construct: recombinant, E. coli pET32b or pET28a, His-tagged, purified, putative transit peptide removed (mitochondrial enzyme)

[9] = target: T9, TPS35 (Solanum lycopersicum, UniProt G5CV43); experiment: in vitro assay, GC-MS of products; conditions: product predominantly Z,Z-farnesol
T9 construct: recombinant, E. coli pET32b or pET28a, His-tagged, purified
T9 sequence (G5CV43 1-556): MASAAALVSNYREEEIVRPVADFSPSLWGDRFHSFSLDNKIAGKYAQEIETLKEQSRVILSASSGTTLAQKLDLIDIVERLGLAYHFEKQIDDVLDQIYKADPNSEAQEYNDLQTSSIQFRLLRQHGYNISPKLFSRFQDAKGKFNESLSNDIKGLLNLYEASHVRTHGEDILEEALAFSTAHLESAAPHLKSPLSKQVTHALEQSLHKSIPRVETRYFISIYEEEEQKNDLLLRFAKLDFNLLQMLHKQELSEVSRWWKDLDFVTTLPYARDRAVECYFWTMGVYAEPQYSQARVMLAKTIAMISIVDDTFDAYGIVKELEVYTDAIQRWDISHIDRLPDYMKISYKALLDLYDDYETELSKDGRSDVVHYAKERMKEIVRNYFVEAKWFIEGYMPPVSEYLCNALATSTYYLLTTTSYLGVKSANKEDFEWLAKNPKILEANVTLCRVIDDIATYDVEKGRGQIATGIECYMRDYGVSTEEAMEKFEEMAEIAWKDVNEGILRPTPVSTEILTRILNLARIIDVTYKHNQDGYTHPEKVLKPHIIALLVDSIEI

[10] = target: T10, TPS51 (Solanum lycopersicum, UniProt A0A6H0JLJ2); experiment: in vitro assay, GC-MS of products
T10 construct: recombinant, E. coli (codon-optimised gene made), His-tagged, purified; full length 550 residues; gene on chromosome 7
T10 sequence (A0A6H0JLJ2 1-550): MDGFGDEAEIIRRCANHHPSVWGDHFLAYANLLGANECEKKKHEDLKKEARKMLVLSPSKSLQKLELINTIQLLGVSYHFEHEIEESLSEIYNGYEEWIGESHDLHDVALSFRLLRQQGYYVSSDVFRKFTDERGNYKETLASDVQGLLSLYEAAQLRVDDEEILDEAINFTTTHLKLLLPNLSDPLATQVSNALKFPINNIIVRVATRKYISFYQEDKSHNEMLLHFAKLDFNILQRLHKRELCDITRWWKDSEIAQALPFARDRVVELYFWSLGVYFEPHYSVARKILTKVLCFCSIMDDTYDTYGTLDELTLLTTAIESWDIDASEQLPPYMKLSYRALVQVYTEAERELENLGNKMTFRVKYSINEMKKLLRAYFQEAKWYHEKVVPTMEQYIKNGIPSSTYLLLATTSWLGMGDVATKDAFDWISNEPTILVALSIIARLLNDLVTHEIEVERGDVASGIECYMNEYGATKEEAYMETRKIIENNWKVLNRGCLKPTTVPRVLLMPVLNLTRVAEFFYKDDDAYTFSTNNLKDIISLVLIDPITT

[11] = target: T11, TPS27 (Solanum lycopersicum, UniProt G5CV48); experiment: in vitro assay, GC-MS of products; conditions: product alpha-farnesene
T11 construct: recombinant, E. coli pET32b or pET28a, His-tagged, purified
T11 sequence (G5CV48 1-554): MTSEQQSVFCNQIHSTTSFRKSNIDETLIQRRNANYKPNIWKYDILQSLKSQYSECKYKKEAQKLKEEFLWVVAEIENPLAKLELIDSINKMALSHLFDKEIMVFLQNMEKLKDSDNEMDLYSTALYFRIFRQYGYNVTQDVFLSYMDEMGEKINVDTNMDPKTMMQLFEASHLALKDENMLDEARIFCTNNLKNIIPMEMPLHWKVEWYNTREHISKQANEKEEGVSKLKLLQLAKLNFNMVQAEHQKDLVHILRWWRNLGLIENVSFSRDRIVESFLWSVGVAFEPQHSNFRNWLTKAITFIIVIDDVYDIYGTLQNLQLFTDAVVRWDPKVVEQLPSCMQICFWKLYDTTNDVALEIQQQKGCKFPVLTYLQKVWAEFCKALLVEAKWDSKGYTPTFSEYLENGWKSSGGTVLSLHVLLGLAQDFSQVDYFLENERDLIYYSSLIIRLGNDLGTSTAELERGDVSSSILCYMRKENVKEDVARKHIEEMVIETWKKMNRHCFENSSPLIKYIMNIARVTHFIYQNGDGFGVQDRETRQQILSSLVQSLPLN

T1 sequence (Q1A7S9 57-363): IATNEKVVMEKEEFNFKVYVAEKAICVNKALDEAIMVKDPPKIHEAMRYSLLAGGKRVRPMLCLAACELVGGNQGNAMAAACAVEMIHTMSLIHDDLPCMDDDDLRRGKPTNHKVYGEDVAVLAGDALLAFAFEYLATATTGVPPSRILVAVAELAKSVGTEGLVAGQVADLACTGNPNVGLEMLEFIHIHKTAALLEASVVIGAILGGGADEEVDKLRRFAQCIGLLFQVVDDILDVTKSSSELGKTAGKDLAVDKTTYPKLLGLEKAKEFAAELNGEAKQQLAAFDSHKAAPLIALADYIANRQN
T8 sequence (G5CV42 entry or part of it): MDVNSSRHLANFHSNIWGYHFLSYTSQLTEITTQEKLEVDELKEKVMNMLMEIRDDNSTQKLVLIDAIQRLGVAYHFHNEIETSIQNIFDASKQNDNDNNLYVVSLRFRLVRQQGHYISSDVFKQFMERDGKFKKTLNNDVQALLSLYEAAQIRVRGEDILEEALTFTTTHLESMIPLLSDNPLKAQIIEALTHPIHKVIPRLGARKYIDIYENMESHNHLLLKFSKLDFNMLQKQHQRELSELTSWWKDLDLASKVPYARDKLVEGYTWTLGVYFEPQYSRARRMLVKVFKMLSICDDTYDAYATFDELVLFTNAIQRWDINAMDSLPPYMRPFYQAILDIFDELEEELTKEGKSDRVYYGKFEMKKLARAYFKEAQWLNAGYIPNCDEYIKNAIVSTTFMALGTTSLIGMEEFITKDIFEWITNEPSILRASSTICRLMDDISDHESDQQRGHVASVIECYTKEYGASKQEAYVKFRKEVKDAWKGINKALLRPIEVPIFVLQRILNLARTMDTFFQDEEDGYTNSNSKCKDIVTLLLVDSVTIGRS
T2 sequence (Q1A7T0 60-365): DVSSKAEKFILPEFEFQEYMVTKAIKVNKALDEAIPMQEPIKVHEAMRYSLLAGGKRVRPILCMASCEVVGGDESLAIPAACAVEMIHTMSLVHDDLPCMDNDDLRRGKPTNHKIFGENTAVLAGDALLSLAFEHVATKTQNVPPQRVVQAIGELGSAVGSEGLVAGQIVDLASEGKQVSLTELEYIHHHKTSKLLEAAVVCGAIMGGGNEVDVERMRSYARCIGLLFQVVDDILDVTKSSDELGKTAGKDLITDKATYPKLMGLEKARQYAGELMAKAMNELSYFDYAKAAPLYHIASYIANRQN

## CC(C)=CCOP(=O)(O)OP(=O)(O)O [DMAPP]
[1]
  in vitro prenyltransferase assay, products hydrolysed, GC-MS: affinity-purified His-tagged recombinant proteins were incubated with IPP and DMAPP
[2]
  in vitro prenyltransferase assay, products hydrolysed, GC-MS: affinity-purified His-tagged recombinant proteins were incubated with IPP and DMAPP
[3]
  in vitro assay, headspace SPME GC-MS: When tested in vitro, TPS47 catalysed the formation of isoprene from DMAPP

## CC(C)=CCC/C(C)=C/COP(=O)(O)OP(=O)(O)O [GPP]
[4]
  in vitro assay, GC-MS of products: TPS25 had activity only with GPP as the substrate, producing mostly β-ocimene

## CC(C)=CCC/C(C)=C\CC/C(C)=C\COP(=O)(O)OP(=O)(O)O [Z,Z-FPP]
[5]; several sesquiterpene products
  in vitro assay, GC-MS of products: α-bisabolene, β-bisabolene and Z-β-farnesene) from Z,Z-FPP
[6]
  in vitro assay, GC-MS of products: When assayed with Z,Z-FPP, TPS33 made several sesquiterpenes
[7]
  in vitro assay, GC-MS of products: TPS28 and TPS48 also catalysed the formation of a major sesquiterpene from Z,Z-FPP
[8]
  in vitro assay, GC-MS of products: TPS36 only had activity using Z,Z-FPP and produced mostly cis-muurola-3,5-diene
[9]
  in vitro assay, GC-MS of products: while TPS35 made predominantly Z,Z-farnesol
[10]; several sesquiterpene products
  in vitro assay, GC-MS of products: α-bisabolene, β-bisabolene and Z-β-farnesene) from Z,Z-FPP

## CC(C)=CCC/C(C)=C/CC/C(C)=C/COP(=O)(O)OP(=O)(O)O [E,E-FPP]
[5]; product mostly E-nerolidol
  in vitro assay, GC-MS of products: catalysed the formation of mostly E-nerolidol from E,E-FPP
[11]
  in vitro assay, GC-MS of products: TPS27 had activity only with E,E-FPP to form α-farnesene
[10]; product mostly E-nerolidol
  in vitro assay, GC-MS of products: catalysed the formation of mostly E-nerolidol from E,E-FPP
